# Assay results from patent publication US20230159510A1, “NOVEL PRMT5 INHIBITORS” (AMGEN INC., priority 2020, published 2023).
# Like-named read-outs stand apart in the source and are kept apart here.
# Key:
# [1] = system: HCT116 MTAP null cells; experiment: HCT116 proliferation assay, MTAP null cells (CellTiter-Glo, 6 days); format: cell-based; settings: read-out: Protif_ HCT116-MTAP null IC50
# Outline: (§1)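 Compound titrations (top dose 1 or 10 µM, 1:3 dilution, 8 or 9 concentrations) and a DMSO control were applied to cells cultured overnight beforehand in RPMI 1640 with 10% FBS at 37° C, 5% CO2; viability was scored from luminescence.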
# [2] = system: HCT116 WT cells; experiment: HCT116 proliferation assay, WT cells (CellTiter-Glo, 6 days); format: cell-based; settings: Homo sapiens, HCT-116, 144 h, read-out: Prolif_HCT116-WT IC50
# Outline: as §1
# [3] = molecular target: PRMT5/MEP50 (Homo sapiens, UniProt O14744); experiment: MTase-Glo methyl transferase assay, Method A (Histone H4 peptide, 1 µM MTA, 24 h pre-incubation); format: biochemical; set-up: made in house; settings: read-out: PRMT5 MTase Glo Ki (nM, Meth. A)
# Description: Method A: The PRMT5 inhibitory activity of test compounds was determined using the MTase-Glo™ assay (Promega), which monitors the product (S-adenosyl homocysteine or SAH) of methyltransferase reactions. The PRMT5 MTase-Glo assay was conducted in a 384-well white ProxiPlate (PerkinElmer) in a total volume of 12 µL. The PRMT5 enzymatic reaction (in 4 µL) contained 10 nM PRMT5/MEP50 (produced at Amgen), 5 µM S-adenosyl methionine (SAM, Promega), 1 µM Histone H4 (1-21)-Lys(Biotin) (Anaspec), 1 µM 5′-methylthioadenosine (MTA, Sigma) and two-fold serially diluted compounds in a reaction buffer of 50 mM Tris (pH 8.0), 50 mM NaCl, 0.01% Tween 20, 0.01% BSA, and 1 mM DTT. Test compounds were pre-incubated with PRMT5/MEP50, SAM, and MTA for 24 hours before addition of Histone H4 peptide to initiate the PRMT5 reaction. The reaction was allowed to proceed for 2 hours at room temperature and was then terminated by addition of 2 µL of 3X MTase-Glo™ Reagent (Promega) and 150 µM EPZ015666 (Sigma). After a 30-minute incubation at room temperature, 6 µL of MTase-Glo™ Detection Solution (Promega) was added and the plate was incubated at room temperature for an additional 30 minutes. The light signal corresponding to the amount of SAH produced by the PRMT5 reaction was subsequently measured using an Envision multimode reader (PerkinElmer). IC50 and KI values were obtained by analyzing dose-response curves using Genedata Screener (Genedata).
# Sequence of PRMT5/MEP50 (O14744 whole entry): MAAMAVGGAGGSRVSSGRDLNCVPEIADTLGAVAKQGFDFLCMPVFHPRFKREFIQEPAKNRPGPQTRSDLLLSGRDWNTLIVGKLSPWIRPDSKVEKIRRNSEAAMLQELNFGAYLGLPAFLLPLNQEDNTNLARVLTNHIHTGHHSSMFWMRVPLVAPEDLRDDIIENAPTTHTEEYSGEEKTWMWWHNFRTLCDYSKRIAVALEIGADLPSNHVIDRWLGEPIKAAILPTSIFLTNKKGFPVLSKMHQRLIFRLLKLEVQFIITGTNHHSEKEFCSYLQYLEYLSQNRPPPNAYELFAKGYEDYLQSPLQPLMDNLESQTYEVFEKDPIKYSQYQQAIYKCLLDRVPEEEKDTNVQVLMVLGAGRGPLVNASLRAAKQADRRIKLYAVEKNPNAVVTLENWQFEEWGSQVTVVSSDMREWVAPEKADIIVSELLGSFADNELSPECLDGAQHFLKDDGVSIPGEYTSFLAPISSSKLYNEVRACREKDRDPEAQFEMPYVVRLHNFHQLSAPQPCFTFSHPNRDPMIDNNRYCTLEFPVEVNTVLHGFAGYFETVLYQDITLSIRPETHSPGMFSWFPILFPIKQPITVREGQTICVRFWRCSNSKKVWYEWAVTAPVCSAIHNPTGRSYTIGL
# Sequence of PRMT5/MEP50 (Q9BQA1 whole entry partner): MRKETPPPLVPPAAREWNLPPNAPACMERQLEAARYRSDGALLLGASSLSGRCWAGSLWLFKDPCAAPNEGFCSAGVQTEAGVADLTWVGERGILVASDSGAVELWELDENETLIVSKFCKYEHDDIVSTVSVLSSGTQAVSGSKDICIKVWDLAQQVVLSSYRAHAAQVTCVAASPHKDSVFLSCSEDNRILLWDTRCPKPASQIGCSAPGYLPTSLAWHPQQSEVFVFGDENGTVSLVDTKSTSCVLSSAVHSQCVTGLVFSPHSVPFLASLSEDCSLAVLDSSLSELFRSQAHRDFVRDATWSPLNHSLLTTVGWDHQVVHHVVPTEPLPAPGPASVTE
Structure (SMILES),"IC50 ([1]; HCT116-MTAP null, 144 h)",IC50 [2],Ki [3],IC50 [1]
"Cc1cc2cc(C(=O)N(Cc3ccc(Br)nn3)[C@H](C)c3ncccn3)ccc2nc1N (single isomer, unassigned) [Example 450]",45 nM,2020 nM,0.13 nM,
"C[C@H](c1ncccn1)N(Cc1ccc(OC2COC2)cn1)C(=O)c1cnc2nc(N)c(Br)cc2c1 [Example 426, 7-amino-6-bromo-N-((5-(3-oxetanyloxy)-2-pyridinyl)methyl)-N-((1R)-1-(2-pyrimidinyl)ethyl)-1,8-naphthyridine-3-carboxamide]",964 nM,> 10000 nM,0.47 nM,
"C[C@H](c1ncccn1)N(Cc1ccc(Cl)cn1)C(=O)c1cnc2nc(N)c(Br)cc2c1 [Example 414, 7-amino-6-bromo-N-((5-chloro-2-pyridinyl)methyl)-N-((1R)-1-(2-pyrimidinyl)ethyl)-1,8-naphthyridine-3-carboxamide]",234 nM,5180 nM,0.3 nM,
"Cc1cc2cc(C(=O)N(Cc3ccc(C(F)(F)F)cn3)[C@H](C)c3ncccn3)ncc2nc1N [Example 374, 2-amino-3-methyl-N-((1R)-1-(2-pyrimidinyl)ethyl)-N-((5-(trifluoromethyl)-2-pyridinyl)methyl)-1,7-naphthyridine-6-carboxamide]",341 nM,8570 nM,0.48 nM,
"Cc1cc2cc(C(=O)N(Cc3ccc(C#N)cn3)[C@H](C)c3ncccn3)ccc2nc1N [Example 502, (R)-2-amino-N-((5-cyanopyridin-2-yl)methyl)-3-methyl-N-(1-(pyrimidin-2-yl)ethyl)quinoline-6-carboxamide]",109 nM,3260 nM,0.06 nM,
"Cc1cc2cc(C(=O)N(Cc3ccc(C#N)cn3)[C@H](C)c3ccccc3F)ccc2nc1N [Example 405, 2-amino-N-((5-cyano-2-pyridinyl)methyl)-N-((1R)-1-(2-fluorophenyl)ethyl)-3-methyl-6-quinolinecarboxamide]",54 nM,1040 nM,0.03 nM,
"Cc1cc2cc(C(=O)N(Cc3ccc(C(F)(F)F)cn3)[C@@H]3CCCc4cn[nH]c43)ccc2nc1N (single isomer, unassigned) [Example 527]",10 nM,142 nM,0.05 nM,
"Cc1cc2cc(C(=O)N(Cc3ccc(N4CCOCC4)nn3)[C@H](C)c3ncccn3)ccc2nc1N [Example 555, (R)-2-amino-3-methyl-N-((6-morpholinopyridazin-3-yl)methyl)-N-(1-(pyrimidin-2-yl)ethyl)quinoline-6-carboxamide]",125 nM,3820 nM,0.07 nM,
"Cc1cc2cc(C(=O)N(Cc3ccc(C(F)(F)F)cn3)Cc3ccnc4[nH]ccc34)cnc2nc1N [Example 368, N-((1H-pyrrolo[2,3-b]pyridin-4-yl)methyl)-7-amino-6-methyl-N-((5-(trifluoromethyl)pyridin-2-yl)methyl)-1,8-naphthyridine-3-carboxamide]",,7660 nM,0.14 nM,411 nM
"Cc1cc2cc(C(=O)N(Cc3ccc(C#N)cn3)[C@H](C)c3ncn(C)n3)ccc2nc1N (single isomer, unassigned) [Example 531]",78 nM,2830 nM,0.1 nM,
"Cc1cc2cc(C(=O)N(Cc3ccc(Cl)cn3)Cc3ncccn3)ccc2nc1N [Example 340, 2-amino-N-((5-chloro-2-pyridinyl)methyl)-3-methyl-N-(2-pyrimidinylmethyl)-6-quinolinecarboxamide]",505 nM,> 10000 nM,1.39 nM,
"Cc1cc2cc(C(=O)N(Cc3ncccc3F)[C@H](C)c3ccc(C(F)(F)F)cn3)ccc2nc1N [Example 393, 2-amino-N-((3-fluoro-2-pyridinyl)methyl)-3-methyl-N-((1R)-1-(5-(trifluoromethyl)-2-pyridinyl)ethyl)-6-quinolinecarboxamide]",342 nM,8210 nM,0.22 nM,
"COc1ccc(CN(C(=O)c2cc3cc(C)c(N)nc3cc2F)[C@H](C)c2ncccn2)nn1 (single isomer, unassigned) [Example 479]",60 nM,1220 nM,0.09 nM,
"Cc1cc2cc(C(=O)N(Cc3ccc(C(F)(F)F)cn3)[C@@H]3CCCn4ncnc43)ccc2nc1N (single isomer, unassigned) [Example 464]",71 nM,1510 nM,0.1 nM,
"COc1ccc(CN(C(=O)c2cc3cc(C)c(N)nc3cc2F)[C@@H](C)c2ncccn2)nn1 (single isomer, unassigned) [Example 480]",369 nM,1460 nM,1.49 nM,
"Cc1cc2cc(C(=O)N(Cc3ccc(C(F)F)nn3)[C@H](C)c3ncccn3)ccc2nc1N [Example 380, 2-amino-N-((6-(difluoromethyl)-3-pyridazinyl)methyl)-3-methyl-N-((1R)-1-(2-pyrimidinyl)ethyl)-6-quinolinecarboxamide]",79 nM,1670 nM,0.27 nM,
"Cc1cc2cc(C(=O)N(Cc3ccc(C(N)=O)cn3)[C@H](C)c3ccccc3F)ccc2nc1N [Example 550, 2-amino-N-((5-carbamoyl-2-pyridinyl)methyl)-N-((1R)-1-(2-fluorophenyl)ethyl)-3-methyl-6-quinolinecarboxamide]",199 nM,5930 nM,0.14 nM,
"Cc1cnc(CN(Cc2ccc(C(F)(F)F)cn2)C(=O)c2ccc3nc(N)c(C)cc3c2)cn1 [Example 337, 2-amino-3-methyl-N-((5-methyl-2-pyrazinyl)methyl)-N-((5-(trifluoromethyl)-2-pyridinyl)methyl)-6-quinolinecarboxamide]",434 nM,> 10000 nM,0.39 nM,
"Cc1cc2cc(C(=O)N(Cc3ccc(C(F)(F)F)cn3)[C@H](C)c3ncccn3)cnc2nc1N (single isomer, unassigned) [Example 486]",123 nM,3830 nM,0.42 nM,
"Cc1cc2cc(C(=O)N(Cc3ccc(C(F)(F)F)cn3)Cc3ncccc3F)ncc2nc1N [Example 312, 2-amino-N-((3-fluoro-2-pyridinyl)methyl)-3-methyl-N-((5-(trifluoromethyl)-2-pyridinyl)methyl)-1,7-naphthyridine-6-carboxamide]",806 nM,> 10000 nM,0.36 nM,
"Cc1cc2cc(C(=O)N(Cc3ccc(C(F)(F)F)cn3)[C@@H]3COC[C@H]3O)ccc2nc1N [Example 505, 2-amino-N-((3R,4S)-4-hydroxytetrahydro-3-furanyl)-3-methyl-N-((5-(trifluoromethyl)-2-pyridinyl)methyl)-6-quinolinecarboxamide]",765 nM,10300 nM,2.51 nM,
"Cc1cc2cc(C(=O)N(Cc3ccc(C(F)(F)F)cn3)[C@@H]3CCCN(C4CC4)C3=O)ccc2nc1N (single isomer, unassigned) [Example 462]",349 nM,> 10000 nM,0.29 nM,
"Cc1cc2cc(C(=O)N(Cc3cnc(C#N)cn3)[C@H](C)c3ncccn3)ccc2nc1N [Example 553, 2-amino-N-((5-cyano-2-pyrazinyl)methyl)-3-methyl-N-((1R)-1-(2-pyrimidinyl)ethyl)-6-quinolinecarboxamide]",454 nM,> 10000 nM,0.36 nM,
"COCC(COC)N(Cc1ccc(C(F)(F)F)cn1)C(=O)c1ccc2nc(N)c(C)cc2c1 [Example 511, 2-amino-N-(1,3-dimethoxy-2-propanyl)-3-methyl-N-((5-(trifluoromethyl)-2-pyridinyl)methyl)-6-quinolinecarboxamide]",192 nM,2340 nM,0.14 nM,
"Cc1cc2cc(C(=O)N(Cc3ccc(C(F)(F)F)cn3)[C@H](C)c3ccc(Cl)cn3)ccc2nc1N [Example 428, 2-amino-N-((1R)-1-(5-chloro-2-pyridinyl)ethyl)-3-methyl-N-((5-(trifluoromethyl)-2-pyridinyl)methyl)-6-quinolinecarboxamide]",188 nM,3680 nM,0.08 nM,
"Cc1cc2cc(C(=O)N(Cc3ccc(C(F)(F)F)cn3)CC3CC3)c(F)cc2nc1N [Example 311, 2-amino-N-(cyclopropylmethyl)-7-fluoro-3-methyl-N-((5-(trifluoromethyl)-2-pyridinyl)methyl)-6-quinolinecarboxamide]",163 nM,2840 nM,0.21 nM,
"Cc1cc2cc(C(=O)N(Cc3ccc(N(C)C)nn3)[C@H](C)c3ncccn3)ccc2nc1N [Example 554, (R)-2-amino-N-((6-(dimethylamino)pyridazin-3-yl)methyl)-3-methyl-N-(1-(pyrimidin-2-yl)ethyl)quinoline-6-carboxamide]",122 nM,4280 nM,0.07 nM,
